Here are results for 1 substance from US20100040620A1, “ANTI-CANCER ANTIBODIES AGAINST LEWISy AND LEWISb ANTIGENS” (priority 2006, published 2010).

The experiment has as its system C170 xenografts. Briefly: Prevention model, C170 xenografts. It counts as in vivo. The conditions noted are these: SC101/29 0.2 mg ip 3 times weekly; 5-FU/leucovorin 12.5 mg/kg iv; days 12-23; p<0.004 ANOVA alone, p<0.02 combination. On the procedure: Prevention model. The colorectal tumour cell line, C170 was maintained in serial passage in nude mice. For therapy the mice were sacrificed and the tumours excised. The tumour was finely minced and 3 mm^2 pieces were implanted, under anaesthetic (Hypnorm, Roche/Hypnovel, Jannsen), subcutaneously, into 40 male mice which had been randomly allocated to 4 experimental groups. A group of mice were treated with 5-FU/leucovorin (12.5 mg/kg) by intravenous (iv) injection on days 1, 3, 5, 7, 21 and 22. Three times weekly mice were also injected intraperitoneally (ip) with 0.2 mg of SC101/29 mAb. Control mice received either SC101/29 mAb, 5-FU/leucovorin or vehicle alone. Tumour size was measured by callipers and tumour cross-sectional area calculated on days 12, 16, 19 and 23. At the termination of the experiment tumours were weighed to assess anti-tumour efficacy. Animals were weighed to assess the toxicity of treatment.

As for 5-FU/leucovorin, the “tumour growth of freshly explanted C170 tumours (cross-sectional area)” value is “inhibition of tumour growth”.
